Results as given in the NIST ThermoML archive (doi:10.1021/je050333h).

Tests used:
[1] = 101 kPa, Liquid; for speed of sound: Sing-around technique in a fixed-path interferometer
[2] = cn = amount concentration of the nth substance listed, in mol/dm3; conditions: 101 kPa, Liquid, c2 = 0; for speed of sound: Sing-around technique in a fixed-path interferometer

CC(C)CC(C)(C)C [2,2,4-trimethylpentane]
[1]
Conditions | kinematic viscosity [m2/s] | mass density [kg/m3] | speed of sound [m/s]
293.15 K | 7.33e-07 | 690.6 | 1103.2
298.15 K | 6.97e-07 | 686.3 | 1082.2
303.15 K | 6.63e-07 | 680.84 | 1061.3
313.15 K | 6.02e-07 | 673.37 | 1020.1
323.15 K | 5.49e-07 | 664.65 | 979.5

CC(C)CC(C)(C)C [2,2,4-trimethylpentane] + CCCCC(CC)COC(=O)CC(C(=O)OCC(CC)CCCC)S(=O)(=O)[O-].[Na+]
[2]
Conditions | kinematic viscosity [m2/s] | mass density [kg/m3] | speed of sound [m/s]
293.15 K | 7.33e-07 | 690.6 | 1103.2
298.15 K | 6.97e-07 | 686.3 | 1082.2
303.15 K | 6.63e-07 | 680.84 | 1061.3
313.15 K | 6.02e-07 | 673.37 | 1020.1
323.15 K | 5.49e-07 | 664.65 | 979.5
